We go through 31 molecules from patent US6369088B2, “Substituted 3-phenyl-5-alkoxy-1,3,4-oxadiazol-2-ones, their preparation and their use as pharmaceuticals” (Aventis Pharma Deutschland GmbH, priority 2000, dated 2002).

The structures appear in SMILES notation.

A word on the melting point: it is the temperature of the solid-liquid transition.

`COc1nn(-c2ccc([N+](=O)[O-])c(F)c2)c(=O)o1` gave a melting point of 127 °C.
Take `COc1nn(-c2ccc(NC(=O)Oc3ccccc3)c(C)c2)c(=O)o1`: the melting point came to 145 °C.
For `COc1nn(-c2ccc([N+](=O)[O-])c(C)c2)c(=O)o1` [Example 20, 5-Methoxy-3-(3-methyl-4-nitrophenyl)-3H-(1,3,4)oxadiazol-2-one] the value was 112 °C.
In turn, `COc1nn(-c2ccc([N+](=O)[O-])cc2C)c(=O)o1` [Example 23, 5-Methoxy-3-(2-methyl-4-nitrophenyl)-3H-(1,3,4)oxadiazol-2-one] gave a melting point of 111 °C.
For `COc1nn(-c2ccc([N+](=O)[O-])c(OCc3ccc(F)cc3)c2)c(=O)o1` [Example 24, 5-Methoxy-3-(3-(4-fluorobenzyloxy)-4-nitrophenyl)-3H-(1,3,4)oxadiazol-2-one] the value was 137 °C.
With `COc1nn(-c2ccc(Oc3ccc(Cl)cc3)c(N)c2)c(=O)o1` [Example 27, 5-Methoxy-3-(3-amino-4-(4-chlorophenoxy)phenyl)-3H-(1,3,4)oxadiazol-2-one] the figure was 133 °C; with `COc1nn(-c2ccc(N)c(OCc3ccc(F)cc3)c2)c(=O)o1` [Example 29, 5-Methoxy-3-(4-amino-3-(4-fluorobenzyloxy)phenyl)-3H-(1,3,4)oxadiazol-2-one], 195 °C.
With `COc1nn(-c2ccc(NC(=O)Cc3ccc(Cl)cc3)c(C)c2)c(=O)o1` [Example 31, 5-Methoxy-3-(4-(4-chlorophenylacetylamino)-3-methylphenyl)-3H-(1,3,4)oxadiazol-2-one] the figure was 190 °C.
For the molecule `COc1nn(-c2ccc(NC(=O)CCCCl)c(C)c2)c(=O)o1` [Example 35, 5-Methoxy-3-(4-(4-chlorobutanoylamino)-3-methylphenyl)-3H-(1,3,4)oxadiazol-2-one], the melting point worked out at 137 °C.
For `COc1nn(-c2ccc(NC(=O)C(C)(C)C)c(C)c2)c(=O)o1` [Example 36, 5-Methoxy-3-(4-pivaloylamino-3-methylphenyl)-3H-(1,3,4)oxadiazol-2-one] the value was 157 °C; for `COc1nn(-c2ccc(NS(=O)(=O)CC(F)(F)F)c(C)c2)c(=O)o1` [Example 40, 5-Methoxy-3-(4-(2,2,2-trifluoroethylsulfonylamino)-3-methylphenyl)-3H-(1,3,4)oxadiazol-2-one], 151 °C.
For `COc1nn(-c2ccc(NS(=O)(=O)c3ccc(Cl)cc3)cc2)c(=O)o1` [Example 43, 5-Methoxy-3-(4-(4-chlorophenylsulfonylamino)phenyl)-3H-(1,3,4)oxadiazol-2-one] the value was 169 °C; for `COc1nn(-c2ccc(NS(=O)(=O)c3ccccc3Cl)cc2)c(=O)o1` [Example 44, 5-Methoxy-3-(4-(2-chlorophenylsulfonylamino)phenyl)-3H-(1,3,4)oxadiazol-2-one], 171 °C; for `COc1nn(-c2ccc(NS(=O)(=O)c3cccc(Cl)c3)cc2)c(=O)o1` [Example 45, 5-Methoxy-3-(4-(3-chlorophenylsulfonylamino)phenyl)-3H-(1,3,4)oxadiazol-2-one], 141 °C.
For `COc1nn(-c2ccc(NC(=O)Cc3ccc(Cl)cc3)c(OCc3ccc(F)cc3)c2)c(=O)o1` [Example 46, 5-Methoxy-3-(4-(4-chlorophenylacetylamino)-3-(4-fluorobenzyloxy)phenyl)-3H-(1,3,4)oxadiazol-2-one] the value was 167 °C; for `COc1nn(-c2ccc(NS(=O)(=O)Cc3ccccc3)cc2)c(=O)o1` [Example 47, 5-Methoxy-3-(4-benzylsulfonylaminophenyl)-3H-(1,3,4)oxadiazol-2-one], 153 °C; for `COc1nn(-c2ccc(NS(=O)(=O)C(C)C)cc2)c(=O)o1` [Example 49, 5-Methoxy-3-(4-isopropylsulfonylaminophenyl)-3H-(1,3,4)oxadiazol-2-one], 190 °C.
`COc1nn(-c2ccc(N(C)C)c(C)c2)c(=O)o1` [Example 50, 5-Methoxy-3-(4-dimethylamino-3-methylphenyl)-3H-(1,3,4)oxad iazol-2-one] came in with a melting point of 71 °C.
With `CNc1ccc(-n2nc(OC)oc2=O)cc1OCc1ccc(F)cc1` [Example 55, 5-Methoxy-3-(3-(4-fluorobenzyloxy)-4-methylaminophenyl)-3H-(1,3,4)oxadiazol-2-one] the figure was 98 °C; with `COc1nn(-c2cccc(N)c2)c(=O)o1` [Example 56, 5-Methoxy-3-(3-aminophenyl)-3H-(1,3,4)oxadiazol-2-one], 95 °C; with `COc1nn(-c2cccc(N(Cc3ccccc3)Cc3ccccc3)c2)c(=O)o1` [Example 57, 5-Methoxy-3-(3-dibenzylaminophenyl)-3H-(1,3,4)oxadiazol-2-one], 71 °C.
For `COc1nn(-c2ccc(NC(=O)Nc3ccccn3)cc2)c(=O)o1` [Example 59, 5-Methoxy-3-(4-(pyrid-2-yl)aminocarbonylaminophenyl)-3H-(1,3,4)oxadiazol-2-one] the value was 81 °C.
For the molecule `COc1nn(-c2ccc(N)cc2Cl)c(=O)o1` [Example 63, 5-Methoxy-3-(4-amino-2-chlorophenyl)-3H-(1,3,4)oxadiazol-2-one], the melting point was determined as 126 °C.
With `COc1nn(-c2ccc([N+](=O)[O-])cc2Cl)c(=O)o1` [Example 64, 5-Methoxy-3-(2-chloro-4-nitrophenyl)-3H-(1,3,4)oxadiazol-2-one] the figure was 92 °C.
With `COc1nn(-c2ccc(NC(=O)c3ccc(OC(F)(F)F)cc3)cc2C)c(=O)o1` [Example 66, 5-Methoxy-3-(2-methyl-4-(4-trifluoromethoxybenzoylamino)phenyl)-3H-(1,3,4)oxadiazol-2-one] the figure was 150 °C; with `COc1nn(-c2ccc(NC(=O)OCc3ccccc3)cc2Cl)c(=O)o1` [Example 67, 5-Methoxy-3-(2-chloro-4-benzyloxycarbonylaminophenyl)-3H-(1,3,4)oxadiazol-2-one], 150 °C.
`COc1nn(-c2ccc(NC(=O)OCc3ccc(Cl)cc3)cc2)c(=O)o1` [Example 70, 5-Methoxy-3-(4-(4-chlorobenzyloxycarbonylamino)phenyl)-3H-(1,3,4)oxadiazol-2-one] displayed a melting point of 177 °C.
With `COc1nn(-c2ccc(NC(=O)c3ccc(Cl)c(Cl)c3)cc2)c(=O)o1` [Example 72, 5-Methoxy-3-(4-(3,4-dichlorobenzoylamino)phenyl)-3H-(1,3,4)oxadiazol-2-one] the figure was 200 °C.
With `COc1nn(-c2ccc(NC(=O)C(C)(C)Oc3ccc(Cl)cc3)cc2)c(=O)o1` [Example 73, 5-Methoxy-3-(4-(2-(4-chlorophenoxy)-2-methylpropionylamino)phenyl)-3H-(1,3,4)oxadiazol-2-one] the figure was 153 °C; with `Cc1cc(-n2nc(OC(C)C)oc2=O)ccc1NC(=O)OCc1ccccc1` [Example 75, 5-isopropoxy-3-(3-methyl-4-benzyloxycarbonylaminophenyl)-3H-(1,3,4)oxadiazol-2-one], 119 °C.
For `CCCCOC(=O)Nc1ccc(-n2nc(OC(C)C)oc2=O)cc1C` [Example 76, 5-isopropoxy-3-(3-methyl-4-butyloxycarbonylaminophenyl)-3H-(1,3,4)oxadiazol-2-one], the melting point amounted to 114 °C.
